Measured values taken from ChEMBL document CHEMBL3507680, “University of Dundee, Gates Library screen for HepG2 cell viability”.

Assay: Human HepG2 cell viability assay in 384 well format
Type: toxicity, cell-based
Design: dose 125 nL, time 70.5 hour; concentration not given beside the values
Details: HepG2 cells, read-out: Inhibition

SMILES: CCN(Cc1noc(CC(C)C)n1)Cc1ccccc1Cl
- cytotoxicity at 70.5 h: 1.69%

SMILES: Cc1ccc2cc(C(=O)N3CCN(C(=O)N(C)C)CC3)ccc2n1
- cytotoxicity at 70.5 h: -2.65%

SMILES: CCc1ccc(C(=O)NCc2ccnc(C)n2)cc1
- cytotoxicity at 70.5 h: -8.72%

SMILES: O=C(c1cnc2[nH]c(=O)[nH]c(=O)c2c1)N1CCCC1C1CCCC1 (stereo unspecified)
- cytotoxicity at 70.5 h: -11.9%

SMILES: Cn1c(=O)[nH]c(=O)c2cc(C(=O)N3CCCC3C3CCCC3)cnc21 (stereo unspecified)
- cytotoxicity at 70.5 h: 22.8%

SMILES: CCN(c1ccc(C(=O)NCc2ccnc(C)n2)cc1)C(C)C
- cytotoxicity at 70.5 h: -8.68%

SMILES: O=C(c1cnc2[nH]c(=O)[nH]c(=O)c2c1)N1CCCC1C1CCCCC1 (stereo unspecified)
- cytotoxicity at 70.5 h: -5.02%

SMILES: CC1CN(Cc2cccc(C#N)c2)CCN1c1ccc2nncn2n1 (stereo unspecified)
- cytotoxicity at 70.5 h: -5.84%

SMILES: CC1CN(c2ccc(C#N)cn2)CCN1c1ccc2nncn2n1 (stereo unspecified)
- cytotoxicity at 70.5 h: -4.47%

SMILES: O=C1CC(NS(=O)(=O)c2ccccc2)CN1Cc1ccccc1 (stereo unspecified)
- cytotoxicity at 70.5 h: -5.96%

SMILES: CCOc1ccc(C#N)cc1NC(=O)N1CCOC(C(N)=O)C1 (stereo unspecified)
- cytotoxicity at 70.5 h: 23%

SMILES: N#Cc1ccc(N2CCN(c3ccc4nncn4n3)CC2)nc1
- cytotoxicity at 70.5 h: -2%

SMILES: c1ccc2[nH]c(C3CCN(Cc4nnc(C5CC5)o4)CC3)nc2c1
- cytotoxicity at 70.5 h: -5.81%

SMILES: CC(C)(CNc1ccc(C#N)c(C(F)(F)F)c1)C(N)=O
- cytotoxicity at 70.5 h: 2.06%

SMILES: O=C(CN1CCSCC1c1ccccc1)N1CCOCC1 (stereo unspecified)
- cytotoxicity at 70.5 h: -3.64%

SMILES: Cc1nn(C)c(C)c1CCC(=O)Nc1cn(C)c(=O)n(C)c1=O
- cytotoxicity at 70.5 h: -1.93%

SMILES: CN(CC(F)(F)F)C(=O)CNC(=O)Cc1ccccc1O
- cytotoxicity at 70.5 h: 5.05%

SMILES: Cc1oc(C(=O)O)cc1S(=O)(=O)Nc1cccc(-n2nccc2C)c1
- cytotoxicity at 70.5 h: -5.02%

SMILES: CC(C)(C)NC(=O)CNc1ccc(C#N)c(C(F)(F)F)c1
- cytotoxicity at 70.5 h: -5.25%

SMILES: CN(CC(F)(F)F)C(=O)CNC(=O)Cc1cccc(O)c1
- cytotoxicity at 70.5 h: 1.12%

SMILES: Cc1cc(CCC(=O)N2CCOCC2)ccc1Br
- cytotoxicity at 70.5 h: -5.28%

SMILES: CC(NCc1cccc(S(=O)(=O)N(C)C)c1)c1ccccn1 (stereo unspecified)
- cytotoxicity at 70.5 h: -6.92%

SMILES: CN(CC(F)(F)F)C(=O)CNC(=O)Cc1ccc(O)cc1Cl
- cytotoxicity at 70.5 h: -9.7%

SMILES: Cc1ccc(CCC(=O)N2CCOCC2)cc1Cl
- cytotoxicity at 70.5 h: -6.51%

SMILES: COC1CCCN(C(=O)c2sc(CC(C)C)nc2C)C1 (stereo unspecified)
- cytotoxicity at 70.5 h: -6.5%

SMILES: CSC(C)(C)CNC(=O)NCC[S+]([O-])c1ccccc1F (stereo unspecified)
- cytotoxicity at 70.5 h: -9.35%

SMILES: CN(C)C(=O)CC1CCOc2ccccc21 (stereo unspecified)
- cytotoxicity at 70.5 h: 0.971%

SMILES: c1ccc(-c2noc(C3CCN(CCCn4cncn4)CC3)n2)cc1
- cytotoxicity at 70.5 h: 0.0875%

SMILES: CC(Cn1cccn1)NCc1csc(-c2ccccc2)n1 (stereo unspecified)
- cytotoxicity at 70.5 h: -3.84%

SMILES: CC(C)c1nnc2n1CCN(C(=O)c1ccc3c(c1)NC(=O)CO3)C2
- cytotoxicity at 70.5 h: -2.96%

SMILES: c1ccc(-c2noc(C3CCN(CCn4cccn4)CC3)n2)cc1
- cytotoxicity at 70.5 h: 12.8%

SMILES: COCCN1CCC(c2nc3ccccc3[nH]2)CC1
- cytotoxicity at 70.5 h: -11%

SMILES: Cc1cnn(CC2CCCN2C(=O)Cc2cn3ccsc3n2)c1 (stereo unspecified)
- cytotoxicity at 70.5 h: -6.38%

SMILES: CNC(=O)Cc1noc(Cc2cccc(Br)c2)n1
- cytotoxicity at 70.5 h: -9.45%

SMILES: CCOCc1ccccc1NC(=O)NC1CCN(c2ncccn2)CC1
- cytotoxicity at 70.5 h: -6.67%

SMILES: O=C(O)c1ccc(S(=O)(=O)Nc2cccc(CC(F)(F)F)c2)c(F)c1
- cytotoxicity at 70.5 h: -7.64%

SMILES: Cn1cc(NC(=O)c2cc[nH]n2)cc(Cl)c1=O
- cytotoxicity at 70.5 h: -5.18%

SMILES: O=C(NCCc1nnc2n1CCC2)N1CCC2(CCCCC2)C1
- cytotoxicity at 70.5 h: -0.937%

SMILES: Cn1cc(NC(=O)c2ccccn2)cc(Cl)c1=O
- cytotoxicity at 70.5 h: -7.7%

SMILES: O=C(NCCc1nnc2n1CCCCC2)N1CCC2(CCCC2)CC1
- cytotoxicity at 70.5 h: -7.24%

SMILES: CC(C)CC(C)N(C)C(=O)CCn1cccn1 (stereo unspecified)
- cytotoxicity at 70.5 h: -6.33%

SMILES: c1cnn(CCNCc2csc(-c3ccc4c(c3)OCO4)n2)c1
- cytotoxicity at 70.5 h: -1.83%

SMILES: CCN(C)c1ccc(CNS(=O)(=O)CC2CCCO2)cc1F (stereo unspecified)
- cytotoxicity at 70.5 h: -16%

SMILES: CN(Cc1cccc(F)c1)C(=O)c1ccncc1Cl
- cytotoxicity at 70.5 h: -18.9%

SMILES: CCCn1nnnc1CN(c1ccc(C)cc1)C(C)C
- cytotoxicity at 70.5 h: -5.93%

SMILES: CN(Cc1cccc(OC(F)(F)F)c1)C(=O)c1ccncc1F
- cytotoxicity at 70.5 h: -4.4%

SMILES: Cc1cc(C)n(CC2CCCN2C(=O)Cc2cn3ccccc3n2)n1 (stereo unspecified)
- cytotoxicity at 70.5 h: -3.71%

SMILES: COc1ccc(-c2nc(CNC(C)Cn3cccn3)cs2)cc1 (stereo unspecified)
- cytotoxicity at 70.5 h: -12.5%

SMILES: CC(NCC(F)(F)F)c1ccc(S(C)(=O)=O)c(F)c1 (stereo unspecified)
- cytotoxicity at 70.5 h: 12.5%

SMILES: CC(=O)c1cccc(NCC(=O)NC(N)=O)c1
- cytotoxicity at 70.5 h: 27.4%

SMILES: O=C(COCc1ccccc1Cl)N1CCN(c2ccc(Br)cn2)CC1
- cytotoxicity at 70.5 h: -4.89%

SMILES: Cn1ncc2c1C(COCC1CC1)CN(S(=O)(=O)C1CC1)C2 (stereo unspecified)
- cytotoxicity at 70.5 h: -4.08%

SMILES: Cn1ccc(C(=O)NC2CCC23CCN(C(=O)c2ccccn2)CC3)c1 (stereo unspecified)
- cytotoxicity at 70.5 h: -4.01%

SMILES: CN(C)C(=O)N1CCn2c(Cn3cccn3)cnc2C1
- cytotoxicity at 70.5 h: 1.93%

SMILES: Cc1ccc(C(=O)N2CCc3c(COCC4CC4)cncc3C2)o1
- cytotoxicity at 70.5 h: 18.4%

SMILES: Cc1cccc(C(=O)N2CCn3cc(CNC(=O)CC4CC4)nc3C2)n1
- cytotoxicity at 70.5 h: -4.69%

SMILES: Cc1occc1C(=O)N1CCc2c(CNc3ncccn3)cncc2C1
- cytotoxicity at 70.5 h: -1.28%

SMILES: CO[C@H]1CCN(S(=O)(=O)c2cccs2)[C@H]1Cc1cccnc1
- cytotoxicity at 70.5 h: 2.3%

SMILES: CO[C@@H]1CCN(S(=O)(=O)c2cccs2)[C@H]1Cc1cccnc1
- cytotoxicity at 70.5 h: -4.13%

SMILES: CC(C)OCc1ncn2c1CN(Cc1ccoc1)CCC2
- cytotoxicity at 70.5 h: -11.8%

SMILES: COCC(=O)N1C[C@H]2CN(Cc3csc(C)n3)C(=O)[C@H]2C1
- cytotoxicity at 70.5 h: -8.09%

SMILES: CCS(=O)(=O)N1CCC2(CN(c3cccc(F)c3)C(=O)CN2C)C1 (stereo unspecified)
- cytotoxicity at 70.5 h: -8.93%

SMILES: Cc1noc([C@H]2C[C@H]3OCC[C@H]3N(Cc3cccs3)C2)n1
- cytotoxicity at 70.5 h: -3.05%

SMILES: O=C(Cc1ccccc1)N1Cc2nccn2CC(CN2CCCC2)C1 (stereo unspecified)
- cytotoxicity at 70.5 h: -0.449%

SMILES: Cc1nc(CN2C[C@@H]3CN(C(=O)C4(C#N)CC4)C[C@@H]3C2=O)cs1
- cytotoxicity at 70.5 h: -2.26%

SMILES: CN1CC(=O)N(c2cccc(F)c2)CC12CCN(S(=O)(=O)C1CC1)C2 (stereo unspecified)
- cytotoxicity at 70.5 h: -2.84%

SMILES: Cc1nc2c(c(NC3CC3)n1)CCN(C(=O)CCO)CC2
- cytotoxicity at 70.5 h: -4.49%

SMILES: CN(C)C(=O)[C@H]1C[C@H]2OCC[C@H]2N(Cc2ccc(F)cc2)C1
- cytotoxicity at 70.5 h: -7.16%

SMILES: O=C1CC[C@@H]2[C@@H](CCN2C(=O)c2ccsc2)N1Cc1ccncc1
- cytotoxicity at 70.5 h: 0.223%

SMILES: O=C1CC(c2ccncc2)C2(CCN(C(=O)c3cccc(F)c3)CC2)N1 (stereo unspecified)
- cytotoxicity at 70.5 h: -9.17%

SMILES: COc1ccc(CN2CCn3cc(CNC(=O)CC4CC4)nc3C2)cc1
- cytotoxicity at 70.5 h: -8.89%

SMILES: Cc1cccc(CN2CCc3ncnc(-c4ccsc4)c3CC2)n1
- cytotoxicity at 70.5 h: -13.6%

SMILES: c1ccc(CN2CCc3ncnc(-c4ccoc4)c3CC2)nc1
- cytotoxicity at 70.5 h: -5.45%

SMILES: Cn1cc(CN2CCn3cc(CNC(=O)CC4CC4)nc3C2)cn1
- cytotoxicity at 70.5 h: -7.17%

SMILES: CN(C)C(=O)N1CC2(CCNCC2)c2cc(F)ccc21
- cytotoxicity at 70.5 h: -8.45%

SMILES: c1cnc(N2CCCC3(CCN(CC4CCC4)C3)C2)nc1 (stereo unspecified)
- cytotoxicity at 70.5 h: -8.21%

SMILES: O=C(c1ccco1)N1CCc2c(COCC3CC3)cncc2C1
- cytotoxicity at 70.5 h: -8.01%

SMILES: Cc1cccc(CN2C(=O)C[C@H]3[C@@H]2CCN3Cc2cccs2)n1
- cytotoxicity at 70.5 h: 0.507%

SMILES: Cc1ccc(CN2CC[C@@H]3[C@H]2CCC(=O)N3Cc2ccncc2)s1
- cytotoxicity at 70.5 h: 21%

SMILES: Cc1cccc(CN2C(=O)CC[C@@H]3[C@H]2CCN3Cc2cccnc2)n1
- cytotoxicity at 70.5 h: -0.831%

SMILES: Cc1cccc(CN2C(=O)CC[C@@H]3[C@H]2CCN3Cc2nccn2C)n1
- cytotoxicity at 70.5 h: -9.05%
